Test results published in publication PMC9143821, “Design and Synthesis of a Novel 4-aryl-N-(2-alkoxythieno [2,3-b]pyrazine-3-yl)-4-arylpiperazine-1-carboxamide DGG200064 Showed Therapeutic Effect on Colon Cancer through G2/M Arrest” (Pharmaceuticals, 2022).

System: HCT116 and DLD1 cells
Test: Immunoblotting of cell cycle and FBXW7 substrate proteins
Assay type: cell-based, human
Settings: 6 h
Protocol: HCT116 and DLD1 cells were exposed to increasing concentrations of DGG200064 (0, 10, 50, 100 nM) for 6 h. […] Moreover, there were increased levels of c-Jun by DGG200064 (50 nM) treatment in other 6-colon cancer cells (Figure S1, Supplementary Materials). c-Jun is a component of the transcription factor activator protein 1 (AP-1), which is activated by a variety of extracellular stimuli, such as growth factors and UV irradiation. In cancer cells, activation of c-Jun promotes down-stream target gene transcription, and it is involved in cell proliferation, growth, division, and apoptosis. […] To test whether DGG200064 could induce G2/M cell cycle arrest through the increasing of c-Jun level, the two genes were silenced using c-Jun siRNAs and treated with DGG200064 in HCT116 and DLD1 cells (Figure 3c). When c-Jun was silenced, the amount of cyclin B protein treated by DGG200064 decreased. […]
The whole-cell lysate was prepared using Radioimmunoprecipitation assay buffer (RIPA buffer) prepared in 50 mM Tris-HCl, pH 8.0, with 150 mM sodium chloride, 1.0% Igepal CA-630 (NP-40), 0.5% sodium deoxycholate, 0.1% sodium dodecyl sulfate, protease inhibitor cocktail, and phosphatase inhibitor cocktail. […] Membranes were washed five times with TBST, and chemiluminescence was detected using Westsave™ (Abfrontier, Seoul, Korea). […]

SMILES: COc1cc(OC)cc(N2CCN(C(=O)Nc3nc4sccc4nc3OC)CC2)c1 [Compound 7c, 4-(3,5-Dimethoxyphenyl)-N-(2-methoxythieno[2,3-b]pyrazin-3-yl)piperazine-1-carboxamide]
- cyclin E and c-Myc levels (HCT116, 0, 10, 50, 100 nM): not affected
- cyclin B1, c-Jun and p-c-Jun levels (HCT116 and DLD1, 0, 10, 50, 100 nM): dose-dependent increase
